In data set [1] the test system is human iPSC. Nature of the data set: mThy1 gene targeting in hiPSC with chemical inhibitors added after nucleofection (flow cytometry). It counts as cell-based. The settings on record: for mThy1 gene targeting efficiencies: PGP1 hiPSC, administered after plasmid nucleofection, indicated concentrations (FIG. 9D). The procedure:
FIGS. 9A-G. Effects of chemical and genetic inhibitors on mThy1 gene targeting in hiPSC. FIG. 9A. Mouse Thy1 gene targeting scheme. Human iPSC were nucleofected with the mThy1 targeting vector system plasmids and analyzed by flow cytometry five days later. The percentages of mThy1^+hThy1^−, mThy1^+hThy1^+, and mThy1^−hThy1^− cells for each sample (gated on live single cells) are graphed. Lines mark the percentage values for the control sample. FIGS. 9B-9D. Human iPSC were nucleofected with: 2 μg mThy1 targeting vector; 0.5 μg Cas9 plasmid; and 1.5 μg of sgRNA plasmids. The sample was divided into multiple wells and cultured in plain media (mTeSR1+10 μM Y-27632 ROCK inhibitor) supplemented with the indicated chemical inhibitor for three days. 20 μM pifithrin α, 200 μM peptide V5 (VPMLK, SEQ ID NO:31), 200 μM peptide control (IPMIK, SEQ ID NO:32), 50 μM TEMPOL, or the indicated concentrations of SCR7 or L755507 were used. FIG. 9B, mThy1^+hThy1^− (bottom portion of each bar in each graph), mThy1^+hThy1^+ (top portion of each bar in each graph). FIG. 9C, mThy1^+hThy1^− (bottom portion of each bar in each graph), mThy1^+hThy1^+ (top portion of each bar in left and center graphs, middle portion of each bar in right graph), and mThy1^−hThy1^− (top portion of each bar in right graph). FIG. 9D, mThy1^+hThy1^− (bottom portion of each bar in each graph), mThy1^+hThy1^+ (center portion of each bar in each graph), and mThy1^−hThy1^− (top portion of each bar in each graph). FIGS. 9E-9F. Human iPSC were nucleofected with: 2 μg mThy1 targeting vector plasmid; 0.5 μg Cas9 plasmid; 1 μg of sgRNA plasmids; and 0.5 μg of plasmid expressing the indicated DNA repair gene or pUC19 control (“Cas9 only”). For FIG. 9E, cultures were treated with 50 μM zVAD and 10 μM SB203580 post transfection. mThy1^+hThy1^− (bottom portion of each bar in each graph), mThy1^+hThy1^+ (top portion of each bar in left and center graphs, middle portion of each bar in right graph), and mThy1^−hThy1^− (top portion of each bar in right graph). FIG. 9F, mThy1^+hThy1^− (bottom portion of each bar in each graph), mThy1^+hThy1^+ (top portion of each bar in left and center graphs, middle portion of each bar in right graph), and mThy1^−hThy1^− (top portion of each bar in right graph). FIG. 9G. Human iPSC were nucleofected with: 2 μg mThy1 targeting vector plasmid; 0.5 μg Cas9 plasmid; and 1.5 μg of sgRNA plasmids. The indicated viral inhibitor genes were cloned into the Cas9 expression vector following an IRES sequence. Cultures were supplemented with 50 μM zVAD post transfection. mThy1^+hThy1^− (bottom portion of each bar in each graph), mThy1^+hThy1^+ (top portion of each bar in left and center graphs, middle portion of each bar in right graph), and mThy1^−hThy1^− (top portion of each bar in right graph).
FIGS. 10A-F. Effect of Caspase and p38 MAPK inhibitors on survival and gene targeting of human iPSC. FIG. 10A and FIG. 10B. Mouse Thy1 gene targeting scheme. Human iPSC were nucleofected with the mThy1 targeting vector, Cas9 nuclease, and Thy1 sgRNA expressing plasmid or pUC19 empty vector. Nucleofected cells were evenly divided and plated onto plain media (mTeSR1+10 μM Y-27632 ROCK inhibitor), or media supplemented with the indicated chemical inhibitor. For specific caspase inhibitors, the principal caspase they target is noted in parentheses. As observed in previous reports, most of the nuclease-mediated cell death occurred between days 1-2 post transfection, and the proportions of mThy1^+ cells remained stable beyond day 5. FIG. 10C. Two days after nucleofection, viable cells were counted. Error bars indicate s.e.m. of technical duplicates. Lines mark the count levels for nucleofected cells in plain media with or without sgRNA. FIG. 10D. Five days after transfection, cells were analyzed by flow cytometry for mThy1 and hThy1 expression. The percent of mThy1^+hThy1^− (bottom of each bar) and mThy1^+hThy1^+ (top of each bar) cells of live single cells is indicated. […]

In data set [2] the test system is human iPSC. In kind it is cell-based. The settings on record: for rescue of hiPSC from cell death (anoikis) after nucleofection: viable cells two days after nucleofection, sgRNA plasmid or pUC19 control. As to the method: FIGS. 10A-F. Effect of Caspase and p38 MAPK inhibitors on survival and gene targeting of human iPSC. FIG. 10A and FIG. 10B. Mouse Thy1 gene targeting scheme. Human iPSC were nucleofected with the mThy1 targeting vector, Cas9 nuclease, and Thy1 sgRNA expressing plasmid or pUC19 empty vector. Nucleofected cells were evenly divided and plated onto plain media (mTeSR1+10 μM Y-27632 ROCK inhibitor), or media supplemented with the indicated chemical inhibitor. For specific caspase inhibitors, the principal caspase they target is noted in parentheses. […] FIG. 10C. Two days after nucleofection, viable cells were counted. Error bars indicate s.e.m. of technical duplicates. Lines mark the count levels for nucleofected cells in plain media with or without sgRNA. FIG. 10D. Five days after transfection, cells were analyzed by flow cytometry for mThy1 and hThy1 expression. The percent of mThy1^+hThy1^− (bottom of each bar) and mThy1^+hThy1^+ (top of each bar) cells of live single cells is indicated. Lines mark the levels for cells in plain media. […] FIG. 10E. FACS plots of human iPSC transfected with the mThy1 targeting vector, Cas9 nuclease, and Thy1 Left and Right sgRNAs. Cells were subsequently cultured for 5 days in plain media±50 μM zVAD and ±10 μM SB203580. FIG. 10F. Human iPSC cultures were single cell FACS sorted into 96-well tissue culture plates containing a MEF feeder layer and hES media supplemented with SMC4 inhibitors±50 μM zVAD for eight days. Ten days after sorting, the number of surviving iPSC colonies was counted (from 190 cells sorted). PGP1 hiPSC lines created using retroviral vectors or non-integrating methods were both tested.
Pluripotency of iPSC cultures was verified by flow cytometry staining using anti-human Tra-1/60 PE (TRA-1-60, BD) and anti-human Oct3/4 eFluor 660 (EM92, eBioscience) with the fixation buffer sold under the trademark BD CYTOFIX™ and permeabilization buffer sold under the trademark PHOSFLOW™ Perm/Wash buffers. Human g-band karyotype analysis was done by Cell Line Genetics. Viable cell counts were measured with the cell analyzer sold under the trademark MUSE® Count & Viability Assay kit (EMD Millipore). Anti-human HLA-A2 APC (BB7.2) and anti-human HLA-BC PE (B1.23.2) were purchased from eBioscience. Human iPSC cultures were treated with 50 ng/ml recombinant interferon gamma (eBioscience) for 2 days prior to HLA staining.
Plasmids were purified using the plasmid DNA purification kit sold under the trademark Qiagen ENDOFREE® Plasmid Maxi kit and nucleofected into iPSC cells using the Lonza 4D-Nucleofector X unit (Buffer P3, Program CB-150). For each 20 μl nucleofection reaction, 0.2-0.5×106 iPSC were transfected with up to 4 μg of plasmid DNA. Post-nucleofection, iPSC were plated onto solubilized basement membrane matrix secreted by Engelbreth-Holm-Swarm (EHS) mouse sarcoma cells sold under the trademark […]®-coated wells containing feeder-free cell culture medium sold under the trademark MTESR1™ media with 10 μM Y-27632 plus other chemical inhibitors when noted. Later experiments included 50 μM zVAD-fmk (Bachem) for 1 day and 10 μM SB203580 (Biovision) for 4-5 days post transfection (see FIGS. 5, 6, 11, and 12). For FIG. 6 (ssODN transfection), 200 ng/ml recombinant B 18R (eBioscience), was also added to the culture for 5 days post transfection.
The following inhibitors were added to the hiPSC culture at the concentrations and time periods indicated in the Examples below. • 1. p53 or Bax inhibitors: cyclic pifithrin α (StemCell Technologies); pifithrin (Tocris); peptide V5, peptide control, iMAC1 and iMAC2 (EMD Millipore); N-acetyl cysteine and 4-hydroxy TEMPO (TEMPOL) (Sigma). • 2.

The mark [3] stands for this setting: 10 μM SB203580 added to hiPSC media after nucleofection.

The values that follow come from US11459586B2, “Methods for increasing efficiency of nuclease-mediated gene editing in stem cells” (President and Fellows of Harvard College, priority 2016, dated 2022).

Like-named read-outs stand apart in the source and are kept apart here. Peptide text beside a SMILES is read from it. * marks the point of attachment. Cbz = O=C(OCc1ccccc1)*; CH2F = FC*

Consider `O=c1[nH]c(=S)[nH]c(N=Cc2ccccc2)c1N=Cc1ccccc1` [SCR7], for which, in the data set on human iPSC [1], the “mThy1 gene targeting efficiencies” value is recorded as “neither the DNA ligase IV inhibitor SCR7 (Maruyama et al., 2015) nor the β3-adrenergic receptor agonist L755507 (Yu et al., 2015) improved mThy1 gene targeting efficiencies”.
Turning to `C[S+]([O-])c1ccc(-c2nc(-c3ccncc3)c(-c3ccc(F)cc3)[nH]2)cc1` (stereo not shown) [SB203580], the gene targeting efficiency entry in the data set on human iPSC [1] (setting [3]) is reported as “did enhance gene targeting efficiency”. In addition, the cell survival result in the data set on human iPSC [2] (setting [3]) is recorded as “did not affect cell survival”.
With `COC(=O)CC[C@H](NC(=O)[C@H](CC(=O)OC)NC(=O)OCc1ccccc1)C(=O)N[C@H](C(=O)N[C@@H](CC(=O)OC)C(=O)CF)C(C)C` [zDEVD-fmk], in the data set with human iPSC [2] (lower concentration, 25 μM), the anoikis rescue entry is “did not show as much anoikis rescue”. Also, in the data set with human iPSC [2], the “rescue of hiPSC from cell death (anoikis) after nucleofection” value (“rescue of hiPSC from cell death” for short) is listed as “prevented anoikis”.
`COC(=O)CC[C@H](NC(=O)[C@H](CC(C)C)NC(=O)OCc1ccccc1)C(=O)N[C@@H](Cc1cnc[nH]1)C(=O)N[C@@H](CC(=O)OC)C(=O)CF` [zLEHD-fmk] (Cbz-LE(OMe)HD(OMe)-CH2F): the “toxicity to hiPSC” value is on record as “very toxic” in the data set with human iPSC [2] (after nucleofection, higher concentration than 25 μM (FIG. 10C)) and “did not show as much” in the data set on human iPSC [2] (lower concentration, 25 μM).
For `Cc1ccc(C(=O)Cn2c3c(sc2=N)CCCC3)cc1` [Pifithrin α], the “mThy1 gene targeting in hiPSC” value in the data set on human iPSC [1] (20 μM pifithrin α in media for three days after nucleofection) was “did not enhance hiPSC gene targeting”.
Regarding `CC1(C)CC(O)CC(C)(C)N1[O]` [TEMPOL, 4-hydroxy TEMPO], the “mThy1 gene targeting in hiPSC” value in the data set on human iPSC [1] (50 μM TEMPOL in media for three days after nucleofection) is listed as “no effect”.
For the molecule `CCCCCCNC(=O)Nc1ccc(S(=O)(=O)Nc2ccc(CCNC[C@H](O)COc3ccc(O)cc3)cc2)cc1` [L755507], the “mThy1 gene targeting efficiencies” value with human iPSC [1] was “neither the DNA ligase IV inhibitor SCR7 (Maruyama et al., 2015) nor the β3-adrenergic receptor agonist L755507 (Yu et al., 2015) improved mThy1 gene targeting efficiencies”.
In the case of `COC(=O)C[C@H](NC(=O)[C@H](C)NC(=O)[C@@H](NC(=O)OCc1ccccc1)C(C)C)C(=O)CF` [zVAD(OMe)-fmk] (Cbz-Val-Ala-Asp(OMe)-CH2F), the “rescue of hiPSC from cell death” value in the data set with human iPSC [2] is “rescued cells transfected with an sgRNA, and also those transfected with the pUC19 control”.
As to VPMLK (peptide V5), the “mThy1 gene targeting in hiPSC” value in the data set with human iPSC [1] (200 μM peptide V5 in media for three days after nucleofection) is recorded as “only a very slight improvement in gene targeting”.
Consider `COC(=O)CC[C@H](NC(=O)[C@H](C)NC(=O)OCc1ccccc1)C(=O)N[C@H](C(=O)N[C@@H](CC(=O)OC)C(=O)CF)C(C)C` [zAEVD-fmk] (Cbz-AE(OMe)VD(OMe)-CH2F), for which the “rescue of hiPSC from cell death” value in the data set on human iPSC [2] was “prevented anoikis”.
